How the values were obtained:
[1] = Cytotoxicity against mouse RAW264.7 cells assessed as reduction in cell viability after 24 hrs by MTT assay; assay type: cell-based
[2] = Cytotoxicity against mouse RAW264.7 cells assessed as survival rate at 2.5 uM after 24 hrs by MTT assay; assay type: cell-based; conditions: read-out: Survival
RAW264.7 [3] = test: Cytotoxicity against mouse RAW264.7 cells assessed as reduction in cell viability at 5 uM after 24 hrs by MTT assay; assay type: cell-based; conditions: raw264.7, 24 h
RAW264.7 [4] = test: Inhibition of RANKL-induced osteoclast differentiation in mouse RAW264.7 cells assessed as TRAP-positive multinucleated cells level at 2.5 uM incubated with compound in presence of RANKL for 4 days by TRAP staining based light microscopic analysis relative to RANKL alone; assay type: functional; design: scale not given: the % may be the effect or the level left

| Structure (SMILES) | CC50 at 24 h [1] [µM] | viability at 24 h, 2.5 µM [2] [%] | Activity (RAW264.7 [3]) | Activity (RAW264.7 [4]) [%] |
| --- | --- | --- | --- | --- |
| O=C(O)c1cc(Br)ccc1O | > 40 | 101 | Toxic | 96.5 |
| O=C1c2cc(Cl)ccc2Oc2cc([N+](=O)[O-])ccc2N1c1ccc(I)cc1F | > 40 | 89.3 | Toxic | 73.8 |
| O=c1oc2ccc(I)cc2c(=O)n1-c1ccc(I)cc1F | 7.6 | 107 | Toxic | 36.1 |
| O=C1c2cc(F)ccc2Oc2cc([N+](=O)[O-])ccc2N1c1ccc(I)cc1F | > 40 | 95.3 | Toxic | 85.3 |
| O=c1oc2ccc(Cl)cc2c(=O)n1-c1ccc(Cl)cc1F | 6.8 | 99.4 | Toxic | 32.8 |
| O=C(Nc1ccc(F)cc1F)c1cc(Cl)ccc1O | 14.6 | 109 | Toxic | 93.3 |
| O=C(Nc1ccc(F)cc1F)c1cc(Br)ccc1O | 13.8 | 91.9 | Toxic | 95.2 |
| O=C1c2cc(I)ccc2Oc2cc([N+](=O)[O-])ccc2N1c1ccc(Br)cc1F | > 40 | 93.4 | Toxic | 84.8 |
| O=C1c2cc(F)ccc2Oc2cc([N+](=O)[O-])ccc2N1c1ccc(F)cc1F | > 40 | 90.1 | Toxic | 92.4 |
| O=c1oc2ccc(Br)cc2c(=O)n1-c1ccc(I)cc1F | 7.9 | 96.8 | Toxic | 39 |
| O=C(O)c1cc(I)ccc1O | > 40 | 98.9 | Toxic | 90.5 |
| O=C(Nc1ccc(Cl)cc1F)c1cc(F)ccc1O | 7.7 | 99.5 | Toxic | 27.1 |
| O=C1c2cc(Cl)ccc2Oc2cc([N+](=O)[O-])ccc2N1c1ccc(Br)cc1F | > 40 | 100 | Toxic | 77.2 |
| O=C1c2ccccc2Oc2cc([N+](=O)[O-])ccc2N1c1ccc(Cl)cc1F | > 40 | 103 | Toxic | 97.1 |
| O=C(Nc1ccc(F)cc1F)c1cc(I)ccc1O | 13.7 | 103 | Toxic | 80.5 |
| O=C(Nc1ccc(Br)cc1F)c1cc(Br)ccc1O | 7.8 | 99.5 | Toxic | 33.1 |
| O=C1c2cc(I)ccc2Oc2cc([N+](=O)[O-])ccc2N1c1ccc(Cl)cc1F | > 40 | 94.9 | Toxic | 75.2 |
| O=C(O)c1cc(F)ccc1O | > 40 | 102 | Toxic | 90.9 |
| O=c1oc2ccc(F)cc2c(=O)n1-c1ccc(Cl)cc1F | 7.9 | 107 | Toxic | 29.8 |
| O=C(Nc1ccc(F)cc1F)c1cc(F)ccc1O | 15.7 | 99.2 | Toxic | 93.7 |

| Structure (SMILES) | CC50 at 24 h [1] [µM] | viability at 24 h, 2.5 µM [2] [%] | Activity (RAW264.7 [3]) | Activity (RAW264.7 [4]) [%] |
| --- | --- | --- | --- | --- |
| O=C1c2ccccc2Oc2cc([N+](=O)[O-])ccc2N1c1ccc(I)cc1F | > 40 | 87.2 | Toxic | 88.6 |
| O=c1oc2ccc(I)cc2c(=O)n1-c1ccc(Cl)cc1F | 8.9 | 117 | Toxic | 38 |
| O=C(Nc1ccc(Cl)cc1F)c1cc(Br)ccc1O | 9.2 | 103 | Toxic | 39.6 |
| O=c1oc2ccccc2c(=O)n1-c1ccc(Cl)cc1F | 24.4 | 92.5 | Toxic | 71.1 |
| O=c1oc2ccc(I)cc2c(=O)n1-c1ccc(Br)cc1F | 8.3 | 109 | Toxic | 58.2 |
| O=C1c2cc(F)ccc2Oc2cc([N+](=O)[O-])ccc2N1c1ccc(Cl)cc1F | > 40 | 91.2 | Toxic | 93.1 |
| O=C1c2cc(Br)ccc2Oc2cc([N+](=O)[O-])ccc2N1c1ccc(Br)cc1F | > 40 | 88.7 | Toxic | 84.2 |
| O=C(O)c1cc(Cl)ccc1O [5-CHLOROSALICYLIC ACID] | > 40 | 113 | Toxic | 96.6 |
| O=C1c2cc(Br)ccc2Oc2cc([N+](=O)[O-])ccc2N1c1ccc(I)cc1F | > 40 | 93.2 | Toxic | 78.1 |
| O=c1oc2ccc(Br)cc2c(=O)n1-c1ccc(Cl)cc1F | 7.5 | 82.1 | Toxic | 67.4 |
| O=c1oc2ccc(Cl)cc2c(=O)n1-c1ccc(Br)cc1F | 8.1 | 114 | Toxic | 45.5 |
| O=C1c2cc(Br)ccc2Oc2cc([N+](=O)[O-])ccc2N1c1ccc(Cl)cc1F | > 40 | 102 | Toxic | 67.1 |
| O=c1oc2ccc(Br)cc2c(=O)n1-c1ccc(F)cc1F | 16 | 107 | Toxic | 98.3 |
| O=C1c2cc(Cl)ccc2Oc2cc([N+](=O)[O-])ccc2N1c1ccc(Cl)cc1F | > 40 | 100 | Toxic | 59.4 |
| O=C1c2cc(Cl)ccc2Oc2cc([N+](=O)[O-])ccc2N1c1ccc(F)cc1F | > 40 | 99.6 | Toxic | 70.6 |
| O=C(Nc1ccc(Cl)cc1F)c1cc(I)ccc1O | 8.5 | 94 | Toxic | 26.1 |
| O=c1oc2ccc(Br)cc2c(=O)n1-c1ccc(Br)cc1F | 7.2 | 103 | Toxic | 54.9 |
| O=c1oc2ccc(F)cc2c(=O)n1-c1ccc(Br)cc1F | 7.2 | 103 | Toxic | 25.5 |
| O=C1c2cc(I)ccc2Oc2cc([N+](=O)[O-])ccc2N1c1ccc(I)cc1F | > 40 | 98.9 | Toxic | 55.7 |
| O=c1oc2ccccc2c(=O)n1-c1ccc(I)cc1F | 24.5 | 105 | Toxic | 66.7 |

Source: ChEMBL document CHEMBL3808275, “Design, synthesis and SARs of novel salicylanilides as potent inhibitors of RANKL-induced osteoclastogenesis and bone resorption” (Eur J Med Chem, 2016)
